Holding throughout (test): SelectScreen Kinase Profiling, single point inhibition and IC50 for off-target kinases
Holding throughout (type): biochemical

Assay [1] addresses off-target kinases (Homo sapiens, UniProt Q13555). The following applies: CAMK2G (CaMKII gamma), LanthaScreen Binding. (TR-FRET usually uses a lanthanide donor and a delayed reading to cut background.)
Assay [2] addresses T1, off-target kinases (Homo sapiens, UniProt O75385).
T1 sequence (O75385 1-1050): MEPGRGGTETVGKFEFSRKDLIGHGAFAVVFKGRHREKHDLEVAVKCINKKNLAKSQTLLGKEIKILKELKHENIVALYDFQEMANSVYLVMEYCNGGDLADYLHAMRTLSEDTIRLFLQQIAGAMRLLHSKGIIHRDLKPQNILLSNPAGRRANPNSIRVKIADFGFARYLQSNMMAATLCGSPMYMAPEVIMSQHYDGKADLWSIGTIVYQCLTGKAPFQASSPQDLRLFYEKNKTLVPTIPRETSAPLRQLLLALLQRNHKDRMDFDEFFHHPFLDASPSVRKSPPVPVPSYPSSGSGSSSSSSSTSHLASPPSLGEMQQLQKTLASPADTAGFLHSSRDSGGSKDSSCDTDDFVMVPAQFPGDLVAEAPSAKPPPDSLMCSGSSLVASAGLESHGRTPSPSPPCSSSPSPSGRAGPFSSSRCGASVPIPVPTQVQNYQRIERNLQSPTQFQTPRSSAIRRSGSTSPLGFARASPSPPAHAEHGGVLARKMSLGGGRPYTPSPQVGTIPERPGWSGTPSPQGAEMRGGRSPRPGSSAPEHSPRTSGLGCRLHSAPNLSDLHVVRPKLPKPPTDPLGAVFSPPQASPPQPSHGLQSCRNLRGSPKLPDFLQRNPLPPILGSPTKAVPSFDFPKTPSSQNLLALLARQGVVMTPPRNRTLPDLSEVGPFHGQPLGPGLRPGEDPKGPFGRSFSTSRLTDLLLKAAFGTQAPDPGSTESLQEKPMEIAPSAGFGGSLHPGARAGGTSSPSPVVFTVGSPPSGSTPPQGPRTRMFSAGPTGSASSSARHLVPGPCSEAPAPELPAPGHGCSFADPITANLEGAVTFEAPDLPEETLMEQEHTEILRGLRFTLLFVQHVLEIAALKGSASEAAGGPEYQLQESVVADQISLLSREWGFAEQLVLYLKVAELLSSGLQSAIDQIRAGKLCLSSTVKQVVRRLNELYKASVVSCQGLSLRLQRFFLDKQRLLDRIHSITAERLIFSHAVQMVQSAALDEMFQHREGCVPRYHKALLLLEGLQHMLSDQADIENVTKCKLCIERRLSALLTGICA
The following applies: ULK1, LanthaScreen Binding.

Assay [3] deals with off-target kinases (Homo sapiens, UniProt Q16512). The following applies: PKN1 (PRK1); Cmpd1 1000 μM; ATP Km app; ZLYTE.
For assay [4], the target named is off-target kinases (Homo sapiens, UniProt P08581, D1228H). Particulars: MET D1228H, LanthaScreen Binding.
For assay [5], the target named is T2, off-target kinases (Homo sapiens, UniProt Q16566).
T2 sequence (Q16566 1-473): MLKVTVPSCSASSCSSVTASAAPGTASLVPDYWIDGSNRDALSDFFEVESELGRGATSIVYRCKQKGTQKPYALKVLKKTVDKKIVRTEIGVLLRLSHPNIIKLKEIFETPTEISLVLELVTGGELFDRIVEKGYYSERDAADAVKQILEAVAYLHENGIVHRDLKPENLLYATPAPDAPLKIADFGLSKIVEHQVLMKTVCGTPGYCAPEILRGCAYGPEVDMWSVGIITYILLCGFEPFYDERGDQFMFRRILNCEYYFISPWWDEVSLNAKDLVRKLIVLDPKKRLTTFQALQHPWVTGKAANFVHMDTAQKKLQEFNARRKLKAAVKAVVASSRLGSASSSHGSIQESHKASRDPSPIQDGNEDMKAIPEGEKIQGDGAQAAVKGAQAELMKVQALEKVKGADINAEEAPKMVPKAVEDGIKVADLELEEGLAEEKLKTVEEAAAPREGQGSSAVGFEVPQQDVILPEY

Where two headings read alike, the source gives them in different places.

Chain of off-target kinases (Homo sapiens, UniProt Q13555) (Q13555 whole entry): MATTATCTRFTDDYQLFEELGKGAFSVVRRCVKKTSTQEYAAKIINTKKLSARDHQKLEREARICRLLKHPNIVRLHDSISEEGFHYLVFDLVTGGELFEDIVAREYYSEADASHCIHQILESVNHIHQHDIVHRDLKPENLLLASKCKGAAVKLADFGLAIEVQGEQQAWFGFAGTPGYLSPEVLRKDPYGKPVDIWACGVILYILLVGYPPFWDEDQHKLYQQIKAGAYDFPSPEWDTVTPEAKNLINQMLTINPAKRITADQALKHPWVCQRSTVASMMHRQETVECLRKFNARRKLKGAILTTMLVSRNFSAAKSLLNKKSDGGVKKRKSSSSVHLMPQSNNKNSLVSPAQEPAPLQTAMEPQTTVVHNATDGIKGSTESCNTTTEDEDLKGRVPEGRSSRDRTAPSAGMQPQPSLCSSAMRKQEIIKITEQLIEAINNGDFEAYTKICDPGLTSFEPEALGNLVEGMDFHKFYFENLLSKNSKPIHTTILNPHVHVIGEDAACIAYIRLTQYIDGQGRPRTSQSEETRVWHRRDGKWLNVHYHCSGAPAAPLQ
Chain of off-target kinases (Homo sapiens, UniProt P08581, D1228H) (P08581 25-1390 D1228H): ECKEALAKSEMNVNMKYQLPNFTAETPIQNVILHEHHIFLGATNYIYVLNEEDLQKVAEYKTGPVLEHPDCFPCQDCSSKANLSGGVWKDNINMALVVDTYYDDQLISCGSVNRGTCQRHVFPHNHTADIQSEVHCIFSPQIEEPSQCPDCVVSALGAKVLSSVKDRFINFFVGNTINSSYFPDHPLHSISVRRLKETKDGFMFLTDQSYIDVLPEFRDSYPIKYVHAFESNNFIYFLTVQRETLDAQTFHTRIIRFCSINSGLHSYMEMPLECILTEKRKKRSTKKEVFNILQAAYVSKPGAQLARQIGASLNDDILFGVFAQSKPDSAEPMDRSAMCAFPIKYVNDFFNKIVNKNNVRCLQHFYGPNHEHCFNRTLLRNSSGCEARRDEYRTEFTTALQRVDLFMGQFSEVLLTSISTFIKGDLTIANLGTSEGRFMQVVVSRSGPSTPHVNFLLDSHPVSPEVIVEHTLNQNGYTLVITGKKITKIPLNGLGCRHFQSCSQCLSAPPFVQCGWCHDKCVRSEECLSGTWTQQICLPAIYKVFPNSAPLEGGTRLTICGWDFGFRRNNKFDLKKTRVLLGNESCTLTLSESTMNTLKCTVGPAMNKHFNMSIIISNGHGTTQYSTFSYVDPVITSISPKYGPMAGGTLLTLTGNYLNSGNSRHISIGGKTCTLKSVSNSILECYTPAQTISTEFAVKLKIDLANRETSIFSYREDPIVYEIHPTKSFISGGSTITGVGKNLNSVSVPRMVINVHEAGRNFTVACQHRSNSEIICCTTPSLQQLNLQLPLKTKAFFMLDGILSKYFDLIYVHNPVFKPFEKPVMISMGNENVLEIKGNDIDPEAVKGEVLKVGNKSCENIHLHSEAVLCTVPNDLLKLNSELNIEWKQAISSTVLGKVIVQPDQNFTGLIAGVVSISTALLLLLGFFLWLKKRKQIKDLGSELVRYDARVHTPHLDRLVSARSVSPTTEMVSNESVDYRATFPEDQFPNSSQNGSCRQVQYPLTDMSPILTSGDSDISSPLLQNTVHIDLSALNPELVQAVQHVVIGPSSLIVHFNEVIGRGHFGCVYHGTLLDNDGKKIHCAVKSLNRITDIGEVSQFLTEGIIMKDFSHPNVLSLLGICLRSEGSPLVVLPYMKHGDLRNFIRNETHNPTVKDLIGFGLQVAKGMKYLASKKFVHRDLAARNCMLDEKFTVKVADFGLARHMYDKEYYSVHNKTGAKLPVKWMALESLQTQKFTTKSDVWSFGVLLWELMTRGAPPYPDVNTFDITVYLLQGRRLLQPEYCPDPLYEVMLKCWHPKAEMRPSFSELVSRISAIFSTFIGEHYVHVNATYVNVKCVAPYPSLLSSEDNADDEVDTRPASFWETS
Chain of off-target kinases (Homo sapiens, UniProt Q16512) (Q16512 whole entry): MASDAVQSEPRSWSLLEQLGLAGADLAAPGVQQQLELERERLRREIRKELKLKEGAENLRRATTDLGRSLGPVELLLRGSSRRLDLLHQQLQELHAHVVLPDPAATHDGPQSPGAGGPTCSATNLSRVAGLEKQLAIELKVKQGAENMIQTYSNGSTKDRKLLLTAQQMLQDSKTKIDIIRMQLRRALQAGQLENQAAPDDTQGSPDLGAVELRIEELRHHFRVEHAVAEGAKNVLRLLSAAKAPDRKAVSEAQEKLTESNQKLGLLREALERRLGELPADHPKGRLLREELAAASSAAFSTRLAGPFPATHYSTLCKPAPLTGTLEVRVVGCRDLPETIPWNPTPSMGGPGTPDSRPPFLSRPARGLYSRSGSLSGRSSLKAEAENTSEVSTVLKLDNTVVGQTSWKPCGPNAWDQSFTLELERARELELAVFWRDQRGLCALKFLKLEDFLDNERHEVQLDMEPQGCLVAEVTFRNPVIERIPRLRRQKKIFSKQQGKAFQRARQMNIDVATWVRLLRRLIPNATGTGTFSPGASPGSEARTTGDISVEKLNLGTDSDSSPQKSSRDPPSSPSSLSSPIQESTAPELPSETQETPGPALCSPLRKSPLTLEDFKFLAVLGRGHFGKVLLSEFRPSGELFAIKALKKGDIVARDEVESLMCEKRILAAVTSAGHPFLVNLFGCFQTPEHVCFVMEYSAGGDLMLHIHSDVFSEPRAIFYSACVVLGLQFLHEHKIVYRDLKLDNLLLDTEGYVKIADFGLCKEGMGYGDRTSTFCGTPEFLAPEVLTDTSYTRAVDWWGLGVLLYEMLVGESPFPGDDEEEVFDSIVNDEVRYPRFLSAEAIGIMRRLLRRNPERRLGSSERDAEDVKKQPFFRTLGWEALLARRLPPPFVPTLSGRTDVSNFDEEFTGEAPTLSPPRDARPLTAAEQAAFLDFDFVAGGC

By inhibition is commonly meant the relative decrease from the control value, in per cent. On to `N#Cc1cc(-c2ncnc(Nc3ccc(N4CCN(C5COC5)CC4)cc3)n2)ccc1OC1CCOCC1` [Compound 1, 5-(4-((4-(4-(oxetan-3-yl)piperazin-1-yl)phenyl)amino)-1,3,5-triazin-2-yl)-2-((tetrahydro-2H-pyran-4-yl)oxy)benzonitrile], for which the inhibition was found to be 18% in assay [1] (read-out: % Inhibition 1); 19% in assay [1] (read-out: % Inhibition 2); 18% in assay [1] (read-out: % Inhibition Avg); 91% in assay [2] (read-out: % Inhibition 1); 92% in assay [2] (read-out: % Inhibition 2); 92% in assay [2] (read-out: % Inhibition Avg). The inhibition in assay [4] (read-out: % Inhibition 1) is 46%; in assay [4] (read-out: % Inhibition 2), 48%; in assay [4] (read-out: % Inhibition Avg), 47%; in assay [5] (CAMK4 (CaMKIV), ZLYTE, ATP Km app, read-out: % Inhibition 2), -2%; in assay [5] (CAMK4 (CaMKIV), ZLYTE, ATP Km app, read-out: % Inhibition Avg), -2%; in assay [5] (read-out: % Inhibition 1) it was -2%. Besides, the “% Inhibition 1” value in assay [3] is recorded as −6%. Besides, the “% Inhibition 2” value in assay [3] is on record as −4%. Besides, the “% Inhibition Avg” value in assay [3] is on record as −5%.

The record behind these values is patent US11572590B2, “Methods for evaluating tumor cell spheroids using 3D microfluidic cell culture device” (Dana-Farber Cancer Institute, Inc., priority 2017, dated 2023).
